This note sets out measurements from patent US5728684A, “Determination of prodrugs metabolizable by the liver and therapeutic use thereof” (priority 1994, dated 1998).

For orientation: LD50 means the dose at which mortality reaches 50%. A higher LD50 goes with lower toxicity.

One data set relates to aldehyde oxidase. As to the kind of experiment: Substrate specificity of the conversion of RPdR to RUdR. The data set is classed as in vitro ADME, rat. To be noted: substrate 180 μM; 2 to 4 separate experiments; in nmol/mg/min. How it is done:
Rat hepatic tissue was washed with ice-cold 1.15% KCl and blotted dry. The tissue was then homogenized with a tissue homogenizer, in a volume of 1.15% KCl that was 3 times the tissue weight, to form a 25% (w/v) homogenate. The homogenate was then centrifuged at 10,000 g for 10 minutes at 4° C. The resulting supernatant was filtered through Miracloth (similar to cheese cloth) then dialyzed overnight against 50 mM Tris-HCl buffer pH 7.5 and stored at -80° C. before use. Rat hepatocytes were obtained by a perfusion technique then the cells were extracted with 10 mM phosphate buffer, pH 7.5, containing 1M KCl and dialyzed for 4 hours against 50 mM Tris-HCl buffer pH 7.5.
For the standard assay condition, the reaction mixture contained 50 mM Tris-HCl, pH 7.5, 1 mM EDTA, 180 μM of IPdR (or its analogs) and approximately 0.01 mg protein of 10,000 g supernatant of tissue homogenate in a final volume of 500 μl and the incubation was at 37° C. for 10 minutes unless specified otherwise. 300 μl of reaction mixture was removed at the end of incubation and mixed with 630 μl acetonitrile then agitated. The precipitated protein were removed by centrifugation and the supernatant was lyophilized to dryness. The samples were reconstituted to the original aliquot volume with the HPLC mobile phase buffer and analyzed on a Alltech RP-18 column. IPdR, IUdR and IU were detected at a UV absorption wavelength of 230 nm, and IPdR was also detected at a UV absorption wavelength of 335 nm. The mobile phase was 10% acetonitrile/90%mM ammonium acetate, pH 6.8 and the flow rate was 1 ml/minute. Standard curves of IPdR and IUdR were established from the integration value of known concentrations.
Several 2-pyrimidinone deoxyribose analogs were examined for the conversion to their deoxyuridine counterparts. […] Nevertheless the relative Vmax for IPdR in the reaction at pH 7.5 and pH 9.5 is the same. […] The synthetic substrates for aldehyde oxidase appear to be better than its natural substrates, N^1 -methylnicotinamide and acetaldehyde, as judged by the potency of inhibition of N^1 -methylnicotinamide and acetaldehyde to the IPdR oxidation reaction (Table IV). The rate of reactivity of the liver enzyme with different IPdR analogs follows the order EPdR, IP, IPdR, 5-bromo-2-pyrimidinone deoxyribose (BPdR) and 5-methyl-2-pyrimidinone deoxyribose (MPdR) or 5-ethyl-2-pyrimidinone deoxyribose (EtPdR) (Table V). Electronegative substituents in the 5-position seemed to increase the substrate activity in this oxidation reaction.
Substrate specificity of the conversion of […]

Data set [1] is described as follows: Toxicity of FU and FP in BDF1 mice. The class given is in vivo. Particulars: mouse, in vivo, po, daily, Day 1,2,3,4,5. How it is done:
(§1) BDF1 mice were administered daily oral dosages of either 50, 75 or 100 mg/kg of FU or 100, 150 or 200 mg/kg of FP. The survival rates of each are presented in chart and graphic forms in Table VI and FIGS. 2 and 3.

The subject of a further data set is BDF1 mice. Put plainly: Toxicity of FU and FP in BDF1 mice. The data set is classed as in vivo. Particulars: for Death/Total: Day 1,2,3,4,5. As to the method:
as §1

In the next data set the test system is P388-R leukemia cells. As to the kind of experiment: Survival time of mice bearing P388-R leukemia cells. The class given is in vivo, mouse. To be noted: for Cures/Total / ILS (increase in life span over controls): daily on Day 1,2,3,4,5. How it is done:
(§2) Mice were injected with 100,000 P388-R leukemia cells to induce a leukemia. These cells were resistant to Adriamycin. Daily treatments of 25 and 50 mg/kg FU and 50 and 100 mg/kg FP were given orally to these leukemic mice and the duration of survival was measured. The results are given in tabular and graphic form in Table VII and FIG. 4.
Inoculum: 10^6 P388R cells into each mouse (i.p.)

The test system of the next data set is colon 38 cells. As to the kind of experiment: Colon 38 tumor weight in mice. The class given is in vivo, mouse. To be noted: FU 25 and 50, FP 50 and 100 mg/kg daily oral. As to the method: (§3) Mice were injected with colon 38 cells and were either not treated or treated with daily treatments of 25 and 50 mg/kg FU and 50 and 100 mg/kg FP were given orally to the mice and the change in tumor weight was measured over time.

The test system of a further data set is Transgenic mice. Put plainly: Treatment of transgenic mice expressing SV40 large tumor antigen. The data set is classed as in vivo, mouse.
The test system of data set [2] is hepatic aldehyde oxidase. As to the kind of experiment: Metabolism of prodrugs by hepatic aldehyde oxidase in vitro / in vivo. The class given is in vitro ADME. An excerpt: (§4) As most nucleosides and nucleoside bases include keto groups in their formula and many are structurally related to the structure of uracil, it is expected that bio-affecting compounds which are analogs of nucleosides and nucleoside bases are prime candidates for bio-affecting compounds for which prodrugs in accordance with the present invention can be designed, metabolizable by hepatic aldehyde oxidase into such compounds. Thus, in addition to uracil and uridine analogs, analogs of other nucleosides and nucleoside bases, such as cytidine, guanosine, 6-azauridine and 8-azaguanine analogs, may be used as the basis of the formation of prodrugs in accordance with the present invention. Examples of bio-affecting compounds in this category include ddG, DHPG, ACV, ddI, D4T and AZT.

Data set [3] has as its system leukemia and colon cancer. Put plainly: Therapeutic effectiveness of FP versus FU in leukemia and colon cancer. The data set is classed as in vivo, mouse. Particulars: oral FP.
Excerpt: There are other occasions besides the treatment of liver-associated diseases when the administration of a prodrug will be preferred to the administration of the bio-affecting compound which is formed from such prodrugs. For example, many drugs are not orally administrable for any of a variety of reasons. Oral administration of a prodrug from which the active compound is released in the liver will avoid most of the disadvantages of oral administration of the active compound. Thus, for example, FU is a well-known anti-cancer drug which cannot be administered orally. FP is a prodrug which is metabolizabie by hepatic aldehyde oxidase to FU. FP may be given orally to a subject.
as §2, §3

The test system of data set [4] is hepatic aldehyde oxidase. As to the kind of experiment: Conversion of prodrugs to active compound in vivo.
Excerpt: as §4

SMILES strings stand for the structures. “Also recorded” adds a separate entry of the source.

Procedure for Transgenic mice: Transgenic mice obtained according to the method of Sepulveda et al., Cancer Research 49:6108-6117 (1989) were administered beginning at nine weeks after birth in a female and male, wherein the treatment group received 100 mg/kg two times per day, once per week.

Turning to `Oc1ncc(F)cn1` [FP, 5-fluoro-2-pyrimidinone], in the data set with aldehyde oxidase, the “Conversion of RPdR to RUdR” value was 20. Also, the median lethal dose (LD50) in data set [1] is 180 mg/kg. For the same molecule, the Death/Total with BDF1 mice (100 mg/kg p.o.) is given as 5/5; in the data set on BDF1 mice (150 mg/kg p.o.) it was 4/5; in the data set on BDF1 mice (200 mg/kg p.o.), 0/5. For the same molecule, in the data set on BDF1 mice (oral, even when higher dosages were administered), the “toxicity of FP compared with FU” value is “considerably less”. The Cures/Total in the data set with P388-R leukemia cells (50 mg/kg oral) and in the data set with P388-R leukemia cells (100 mg/kg oral) was 0/5 each time. Also, the “ILS (increase in life span over controls)” value is reported as 0% with P388-R leukemia cells (50 mg/kg oral) and 30% in the data set with P388-R leukemia cells (100 mg/kg oral). Moreover, in the data set with P388-R leukemia cells (FU 25 and 50, FP 50 and 100 mg/kg oral), the “survival time using FP compared to FU” value is given as “as long using FP compared to FU”. The “reduction in tumor size or reduction in its growth rate, FU versus FP” value with colon 38 cells was “comparable between FU and FP”. For the same molecule, the “weight gain, male and female” value in the data set with Transgenic mice (after week 13) was “significantly decreased weight gain”. For the same molecule, the “body weight increase, female” value in the data set with Transgenic mice (female, 100 mg/kg two times per day, once per week) is on record as “slower increase in body weight”. In addition, in the data set with Transgenic mice (female, versus control, which died at week 16), the “survival, female” value is recorded as “lived longer; also recorded: survived the control rat”. Also, in the data set on Transgenic mice (male, 100 mg/kg two times per day, once per week), the “body weight increase, male” value is “slower increase in body weight”. Besides, the “survival, male” value in the data set with Transgenic mice (male, inferred from slower body weight increase) was “longer survival than control”. In addition, the “metabolism to FU by hepatic aldehyde oxidase in vitro” value with hepatic aldehyde oxidase [2] is reported as “metabolizable to FU”. The “effectiveness of FP compared with FU” value in data set [3] is recorded as “essentially the same as FU”. Further, in the data set with hepatic aldehyde oxidase [4], the “metabolism to FU by hepatic aldehyde oxidase in vivo” value was “metabolizable to FU”.
